Data reported in paper PMC12888861, “Antibacterial activity of enmetazobactam against Acinetobacter spp.: a molecular dissection of mechanism of action and resistance determinants” (Antimicrobial Agents and Chemotherapy, 2025).
Where two headings read alike, the source gives them in different places.

Test system: A. non-baumannii isolates (n = 87)
Assay: MIC, broth microdilution (EUCAST), A. non-baumannii isolates
Type: cell-based, Acinetobacter spp. (non-baumannii)
Details: for MIC: in combinations ETZ fixed at 8 mg/L
How it was run: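 Clinical isolates from the Spanish National Acinetobacter spp. 2020 collection were tested by EUCAST v.15 broth microdilution, including enmetazobactam on its own. Duplicate runs used A. baumannii ATCC 19606 as reference.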

CC1(C)[C@H](C(=O)O)N2C(=O)C[C@H]2S1(=O)=O [sulbactam]
MIC distribution 0.12: 2.3 | MIC distribution 0.25: 8.0 | MIC distribution 0.5: 44.8 | MIC distribution 1: 82.8 | MIC distribution 2: 97.7 | MIC distribution 4: 100 | MIC distribution 8: 100 | MIC distribution 16: 100 | MIC distribution 32: 100 | MIC distribution ≤0.06: 1.1 | MIC (Acinetobacter baylyi, isolate NO-Ab27, Acinetobacter baylyi, read-out: MIC): 1 µg/mL | MIC (Acinetobacter beijerinckii, isolate NO-Ab122, Acinetobacter beijerinckii, read-out: MIC): 2 µg/mL | MIC (Acinetobacter bereziniae, isolate NO-Ab70, Acinetobacter bereziniae, read-out: MIC): 0.5 µg/mL | MIC (Acinetobacter bereziniae, isolate NO-Ab84, Acinetobacter bereziniae, read-out: MIC): 1 µg/mL | MIC (Acinetobacter bereziniae, isolate NO-Ab104, Acinetobacter bereziniae, read-out: MIC): 0.5 µg/mL | MIC (Acinetobacter bereziniae, isolate NO-Ab114, Acinetobacter bereziniae, read-out: MIC): 1 µg/mL | MIC (Acinetobacter bereziniae, isolate NO-Ab115, Acinetobacter bereziniae, read-out: MIC): 1 µg/mL | MIC (Acinetobacter bereziniae, isolate NO-Ab116, Acinetobacter bereziniae, read-out: MIC): 0.5 µg/mL | MIC (Acinetobacter bereziniae, isolate NO-Ab117, Acinetobacter bereziniae, read-out: MIC): 1 µg/mL | MIC (Acinetobacter bereziniae, isolate NO-Ab129, Acinetobacter bereziniae, read-out: MIC): 1 µg/mL | MIC (Acinetobacter bereziniae, isolate NO-Ab156, Acinetobacter bereziniae, read-out: MIC): 1 µg/mL | MIC (Acinetobacter calcoaceticus, isolate NO-Ab85, Acinetobacter calcoaceticus, read-out: MIC): 2 µg/mL | MIC (Acinetobacter calcoaceticus, isolate NO-Ab94, Acinetobacter calcoaceticus, read-out: MIC): 2 µg/mL | MIC (Acinetobacter calcoaceticus, isolate NO-Ab108, Acinetobacter calcoaceticus, read-out: MIC): 4 µg/mL | MIC (Acinetobacter calcoaceticus, isolate NO-Ab161, Acinetobacter calcoaceticus, read-out: MIC): 4 µg/mL | MIC (Acinetobacter calcoaceticus, isolate NO-Ab198, Acinetobacter calcoaceticus, read-out: MIC): 2 µg/mL | MIC (Acinetobacter calcoaceticus, isolate NO-Ab205, Acinetobacter calcoaceticus, read-out: MIC): 2 µg/mL | MIC (Acinetobacter calcoaceticus, isolate NO-Ab211, Acinetobacter calcoaceticus, read-out: MIC): 1 µg/mL | MIC (Acinetobacter courvalinii, isolate NO-Ab216, Acinetobacter courvalinii, read-out: MIC): 0.5 µg/mL | MIC (Acinetobacter dispersus, isolate NO-Ab2, Acinetobacter dispersus, read-out: MIC): 0.5 µg/mL | MIC (Acinetobacter guillouiae, isolate NO-Ab69, Acinetobacter guillouiae, read-out: MIC): 1 µg/mL | MIC (Acinetobacter guillouiae, isolate NO-Ab74, Acinetobacter guillouiae, read-out: MIC): 0.5 µg/mL | MIC (Acinetobacter haemolyticus, isolate NO-Ab92, Acinetobacter haemolyticus): 0.5 µg/mL | MIC (Acinetobacter haemolyticus, isolate NO-Ab177, Acinetobacter haemolyticus): 0.5 µg/mL | MIC (Acinetobacter haemolyticus, isolate NO-Ab217, Acinetobacter haemolyticus): 0.25 µg/mL | MIC (Acinetobacter johnsonii, isolate NO-Ab101, Acinetobacter johnsonii, read-out: MIC): 1 µg/mL | MIC (Acinetobacter junii, isolate NO-Ab76, Acinetobacter junii, read-out: MIC): 0.5 µg/mL | MIC (Acinetobacter junii, isolate NO-Ab77, Acinetobacter junii, OXA-24/40, read-out: MIC): 0.5 µg/mL | MIC (Acinetobacter lactucae, isolate NO-Ab60, Acinetobacter dijkshoorniae, read-out: MIC): 1 µg/mL | MIC (Acinetobacter lactucae, isolate NO-Ab63, Acinetobacter dijkshoorniae, read-out: MIC): 1 µg/mL | MIC (Acinetobacter lactucae, isolate NO-Ab65, Acinetobacter dijkshoorniae, read-out: MIC): 1 µg/mL | MIC (Acinetobacter lactucae, isolate NO-Ab86, Acinetobacter dijkshoorniae, read-out: MIC): 1 µg/mL | MIC (Acinetobacter lactucae, isolate NO-Ab88, Acinetobacter dijkshoorniae, read-out: MIC): 0.5 µg/mL | MIC (Acinetobacter lactucae, isolate NO-Ab91, Acinetobacter dijkshoorniae, read-out: MIC): 1 µg/mL | MIC (Acinetobacter lactucae, isolate NO-Ab121, Acinetobacter dijkshoorniae, read-out: MIC): 2 µg/mL | MIC (Acinetobacter lactucae, isolate NO-Ab125, Acinetobacter dijkshoorniae, read-out: MIC): 1 µg/mL | MIC (Acinetobacter lactucae, isolate NO-Ab160, Acinetobacter dijkshoorniae, read-out: MIC): 0.5 µg/mL | MIC (Acinetobacter nosocomialis, isolate NO-Ab43, Acinetobacter nosocomialis, read-out: MIC): 2 µg/mL | MIC (Acinetobacter nosocomialis, isolate NO-Ab68, Acinetobacter nosocomialis, OXA-24/40, read-out: MIC): 1 µg/mL | MIC (Acinetobacter nosocomialis, isolate NO-Ab98, Acinetobacter nosocomialis, read-out: MIC): 2 µg/mL | MIC (Acinetobacter nosocomialis, isolate NO-Ab208, Acinetobacter nosocomialis, read-out: MIC): 0.5 µg/mL
